Measured values from patent publication US20220409548A1, “AMORPHOUS SOLID DISPERSION OF PYRAZOLE-AMIDE COMPOUND” (JAPAN TOBACCO INC., priority 2019, published 2022).

Legend:
[1] = Precipitation test in acidic media (pH 1.2); type: physicochemical; settings: ethanol solution 100 mg/mL into JP 1st fluid pH 1.2, 450 mL; addition of copolyvidone, methylcellulose or hypromellose (0.01 g) vs HPMCAS, polyvinyl alcohol or no polymer; FIG. 3
Description: The dissolution test was performed using a dissolution tester (trade name: NTR-VS6P, manufactured by Toyama Sangyo Co., Ltd.) that conforms to the Japanese Pharmacopoeia Dissolution Test Method 2 (Paddle Method), at paddle rotating speed 75 rpm, test media amount 450 mL. An amount equivalent to 100 mg of the compound of the formula [I] was added to the test media, and the dissolved amount of the compound of the formula [I] was measured at each sampling point with a spectrophotometer (UV-1600, manufactured by Shimadzu Corporation).
The precipitation behavior of the compound of the formula [I], dissolved in ethanol (concentration: 100 mg/mL), in the following 6 types of test medium was evaluated by the same test method as in Experimental Example 1. […]

[2] = test system: pyruvate dehydrogenase kinase (PDHK); settings: described in patent document 1 (WO 2014/142290); cited from earlier work

CC(C)(O)CCOc1cc(-c2cnn(C(C)(C)C(N)=O)c2)c2c(c1)[C@@](O)(C(F)(F)F)c1ccccc1-2 [compound of the formula [I], 2-{4-[(9R)-9-hydroxy-2-(3-hydroxy-3-methylbutyloxy)-9-(trifluoromethyl)-9H-fluoren-4-yl]-1H-pyrazol-1-yl}-2-methylpropanamide]
precipitation behavior in pH 1.2 test media [1]: significantly suppressed the precipitation | pyruvate dehydrogenase kinase (PDHK) inhibitory activity [2]: have a pyruvate dehydrogenase kinase (PDHK) inhibitory activity
